{"source": "patent US20170050957A1", "about": "“4-AMINO-6-(HETEROCYCLIC)PICOLINATES AND 6-AMINO-2-(HETEROCYCLIC)PYRIMIDINE-4-CARBOXYLATES AND THEIR USE AS HERBICIDES” (Dow AgroSciences LLC, priority 2013, published 2017)", "key": {"[1]": {"tested_on": "Key Broadleaf Weed and Crop Species", "assay": "Post-emergent Test II herbicidal activity (Table 15)", "assay_type": "in vivo", "settings": "post-emergence, 336 h, 14 d; for pest or weed control at 35 g/ha: 35 g ai/ha; for pest or weed control at 70 g/ha: 70 g ai/ha; for pest or weed control at 140 g/ha: 140 g ai/ha", "outline": "(§1)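 Visual injury rating (0 = none, 100% = complete kill) made 14 d after treatment, relative to untreated plants. Compounds in an acetone/DMSO/aqueous crop-oil/surfactant spray, at top rate and serial 1/2×-1/16× rates, were applied at 187 L/ha overhead to first-second true leaf plants raised 7-21 d in greenhouse.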"}, "[2]": {"tested_on": "Key Grass and Sedge Weeds as well as Grass Crops", "assay": "Post-emergent Test II herbicidal activity (Table 16)", "assay_type": "in vivo", "settings": "post-emergence, 336 h, 14 days after application; for pest or weed control at 35 g/ha: 35 g ai/ha; for pest or weed control at 70 g/ha: 70 g ai/ha; for pest or weed control at 140 g/ha: 140 g ai/ha", "outline": "as §1"}, "[3]": {"settings": "Abutilon theophrasti, velvetleaf (Abutilon theophrasti), read-out: Visual Growth Reduction (%) 14 Days After Application, ABUTH"}, "[4]": {"settings": "Amaranthus retroflexus, redroot pigweed (Amaranthus retroflexus), read-out: Visual Growth Reduction (%) 14 Days After Application, AMARE"}, "[5]": {"settings": "Brassica napus, oilseed rape, canola (Brassica napus), read-out: Visual Growth Reduction (%) 14 Days After Application, BRSNN"}, "[6]": {"settings": "Chenopodium album, lambsquarters (Chenopodium album), read-out: Visual Growth Reduction (%) 14 Days After Application, CHEAL"}, "[7]": {"settings": "Euphorbia heterophylla, wild poinsettia (Euphorbia heterophylla), read-out: Visual Growth Reduction (%) 14 Days After Application, EPHHL"}, "[8]": {"settings": "Helianthus annuus, sunflower (Helianthus annuus), read-out: Visual Growth Reduction (%) 14 Days After Application, HELAN"}, "[9]": {"settings": "Cyperus esculentus, yellow nutsedge (Cyperus esculentus), read-out: Visual Growth Reduction (%) 14 Days After Application CYPES"}, "[10]": {"settings": "Echinochloa crus-galli, barnyardgrass (Echinochloa crus-galli), read-out: Visual Growth Reduction (%) 14 Days After Application ECHCG"}, "[11]": {"settings": "Oryza sativa, rice (Oryza sativa), read-out: Visual Growth Reduction (%) 14 Days After Application ORYSA"}, "[12]": {"settings": "Setaria faberi, giant foxtail (Setaria faberi), read-out: Visual Growth Reduction (%) 14 Days After Application SETFA"}, "[13]": {"settings": "Triticum aestivum, wheat, spring (Triticum aestivum), read-out: Visual Growth Reduction (%) 14 Days After Application TRZAS"}, "[14]": {"settings": "Zea mays, maize, corn (Zea mays), read-out: Visual Growth Reduction (%) 14 Days After Application ZEAMX"}}, "note": "Where two headings read alike, the source gives them in different places.", "data": [{"smiles": "COC(=O)c1nc(-c2ccc3cn[nH]c3c2)cc(N)c1Cl", "note": "[Compound 4.09]", "values": [{"measurement": "melting point", "value": "191 to 193", "unit": "°C"}, {"measurement": "pest or weed control at 35 g/ha", "setting": "[1]; [3]", "value": "0 to 29", "unit": "%"}, {"measurement": "pest or weed control at 70 g/ha", "setting": "[1]; [3]", "value": "0 to 29", "unit": "%"}, {"measurement": "pest or weed control at 140 g/ha", "setting": "[1]; [3]", "value": "0 to 29", "unit": "%"}, {"measurement": "pest or weed control at 35 g/ha", "setting": "[1]; [4]", "value": "0 to 29", "unit": "%"}, {"measurement": "pest or weed control at 70 g/ha", "setting": "[1]; [4]", "value": "45 to 59", "unit": "%"}, {"measurement": "pest or weed control at 140 g/ha", "setting": "[1]; [4]", "value": "85 to 94", "unit": "%"}, {"measurement": "pest or weed control at 35 g/ha", "setting": "[1]; [5]", "value": "0 to 29", "unit": "%"}, {"measurement": "pest or weed control at 70 g/ha", "setting": "[1]; [5]", "value": "0 to 29", "unit": "%"}, {"measurement": "pest or weed control at 140 g/ha", "setting": "[1]; [5]", "value": "60 to 74", "unit": "%"}, {"measurement": "pest or weed control at 35 g/ha", "setting": "[1]; [6]", "value": "45 to 59", "unit": "%"}, {"measurement": "pest or weed control at 70 g/ha", "setting": "[1]; [6]", "value": "75 to 84", "unit": "%"}, {"measurement": "pest or weed control at 140 g/ha", "setting": "[1]; [6]", "value": "85 to 94", "unit": "%"}, {"measurement": "pest or weed control at 35 g/ha", "setting": "[1]; [7]", "value": "0 to 29", "unit": "%"}, {"measurement": "pest or weed control at 70 g/ha", "setting": "[1]; [7]", "value": "0 to 29", "unit": "%"}, {"measurement": "pest or weed control at 140 g/ha", "setting": "[1]; [7]", "value": "0 to 29", "unit": "%"}, {"measurement": "pest or weed control at 35 g/ha", "setting": "[1]; [8]", "value": "0 to 29", "unit": "%"}, {"measurement": "pest or weed control at 70 g/ha", "setting": "[1]; [8]", "value": "30 to 44", "unit": "%"}, {"measurement": "pest or weed control at 140 g/ha", "setting": "[1]; [8]", "value": "45 to 59", "unit": "%"}, {"measurement": "pest or weed control at 35 g/ha", "setting": "[2]; [9]", "value": "0 to 29", "unit": "%"}, {"measurement": "pest or weed control at 70 g/ha", "setting": "[2]; [9]", "value": "0 to 29", "unit": "%"}, {"measurement": "pest or weed control at 140 g/ha", "setting": "[2]; [9]", "value": "0 to 29", "unit": "%"}, {"measurement": "pest or weed control at 35 g/ha", "setting": "[2]; [10]", "value": "0 to 29", "unit": "%"}, {"measurement": "pest or weed control at 70 g/ha", "setting": "[2]; [10]", "value": "0 to 29", "unit": "%"}, {"measurement": "pest or weed control at 140 g/ha", "setting": "[2]; [10]", "value": "0 to 29", "unit": "%"}, {"measurement": "pest or weed control at 35 g/ha", "setting": "[2]; [11]", "value": "0 to 29", "unit": "%"}, {"measurement": "pest or weed control at 70 g/ha", "setting": "[2]; [11]", "value": "0 to 29", "unit": "%"}, {"measurement": "pest or weed control at 140 g/ha", "setting": "[2]; [11]", "value": "0 to 29", "unit": "%"}, {"measurement": "pest or weed control at 35 g/ha", "setting": "[2]; [12]", "value": "0 to 29", "unit": "%"}, {"measurement": "pest or weed control at 70 g/ha", "setting": "[2]; [12]", "value": "0 to 29", "unit": "%"}, {"measurement": "pest or weed control at 140 g/ha", "setting": "[2]; [12]", "value": "0 to 29", "unit": "%"}, {"measurement": "pest or weed control at 35 g/ha", "setting": "[2]; [13]", "value": "0 to 29", "unit": "%"}, {"measurement": "pest or weed control at 70 g/ha", "setting": "[2]; [13]", "value": "0 to 29", "unit": "%"}, {"measurement": "pest or weed control at 140 g/ha", "setting": "[2]; [13]", "value": "0 to 29", "unit": "%"}, {"measurement": "pest or weed control at 35 g/ha", "setting": "[2]; [14]", "value": "0 to 29", "unit": "%"}, {"measurement": "pest or weed control at 70 g/ha", "setting": "[2]; [14]", "value": "0 to 29", "unit": "%"}, {"measurement": "pest or weed control at 140 g/ha", "setting": "[2]; [14]", "value": "0 to 29", "unit": "%"}]}]}
